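Five compound concentrations were applied to cells in 96-well plates for 48 hours; endpoints were derived by simple linear interpolation of the resulting dose-response curve. The concentration for 50% growth inhibition is given as GI50.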 Calls of active or inactive are those of the source. No stated cut-off is given here; in the data, active = GI50 up to about 1.1 µM and inactive = higher.
Columns and labels:
Assay in all cases: inhibition of tumour cell growth, NCI panel, 48 h
[1] = tested on: LOX IMVI
[2] = tested on: MDA-MB-231
[3] = tested on: SN12C
[4] = tested on: U-251
[5] = tested on: MDA-MB-435
[6] = tested on: MOLT-4
[7] = tested on: PC-3
[8] = tested on: SK-MEL-2
[9] = tested on: SNB-75
[10] = tested on: NCI-H522
[11] = tested on: HT-29
[12] = tested on: A549
[13] = tested on: MDA-N
[14] = tested on: SW-620
[15] = tested on: Hs-578T
[16] = tested on: RXF 393

Row | Structure (SMILES) | GI50 [1] | GI50 [2] | GI50 [3] | GI50 [4] | GI50 [5] | GI50 [6] | GI50 [7] | GI50 [8] | GI50 [9] | GI50 [10] | GI50 [11] | GI50 [12] | GI50 [13] | GI50 [14] | GI50 [15] | GI50 [16]
1 | Cc1cc2nc3c(C)c4ccccc4c(C)n3c2cc1C | 0.857 µM (active) | 1.62 µM (inactive) | 2.07 µM (inactive) | 3.33 µM (inactive) | 3.02 µM (inactive) | 2.39 µM (inactive) | 2.96 µM (inactive) | 3.66 µM (inactive) | 4.97 µM (inactive) | 2.51 µM (inactive) | 2.2 µM (inactive) | 3.9 µM (inactive) | 1.89 µM (inactive) | 2.49 µM (inactive) | 5.56 µM (inactive) | 2.84 µM (inactive)
2 | O=C1C(=CNC(=S)c2ccccc2)C(=O)c2ccccc21 | 43.1 µM (inactive) | 55.2 µM (inactive) | 46.7 µM (inactive) | 64.9 µM (inactive) | 71.8 µM (inactive) | 27.5 µM (inactive) | 63.2 µM (inactive) | 39.5 µM (inactive) | 58.9 µM (inactive) | 21 µM (inactive) | > 100 µM (inactive) | 67.5 µM (inactive) | 52.7 µM (inactive) | 55.8 µM (inactive) | 54 µM (inactive) | 46.7 µM (inactive)
3 | CC[C@]1(c2ccc3c(c2)OCO3)C=[N+]([O-])O[C@H](OC2CCCC2(c2ccccc2)c2ccccc2)[C@@H]1OC(C)=O (some centres undefined) | 2.09 µM (inactive) | 4.01 µM (inactive) | 3.15 µM (inactive) | 3.62 µM (inactive) | 1.8 µM (inactive) | 2 µM (inactive) | 3.24 µM (inactive) | 2.38 µM (inactive) | 2.16 µM (inactive) | 1.77 µM (inactive) | 1.68 µM (inactive) | 2.63 µM (inactive) | 3.83 µM (inactive) | 2.96 µM (inactive) | 3.16 µM (inactive) | 1.27 µM (inactive)
4 | Cn1cc(-c2cnc(-c3cn(C)c4ccccc34)cn2)c2ccccc21 | 5.2 µM (inactive) | 15 µM (inactive) | 8.85 µM (inactive) | 4.06 µM (inactive) | 0.811 µM (active) | 5.66 µM (inactive) | 3.73 µM (inactive) | 5.87 µM (inactive) | 2.77 µM (inactive) | 1.51 µM (inactive) | 4.78 µM (inactive) | 6.21 µM (inactive) | 0.767 µM (active) | 3.19 µM (inactive) | 2.57 µM (inactive) | 3.25 µM (inactive)
5 | Cc1cc(NS(=O)(=O)c2ccc(Nc3c4ccccc4nc4c(C(=O)NC(CO)(CO)CO)cccc34)cc2)no1 | 18.2 µM (inactive) | 37.9 µM (inactive) | 23.1 µM (inactive) | 34.2 µM (inactive) | 53.5 µM (inactive) | 8.75 µM (inactive) | 31.3 µM (inactive) | 19.4 µM (inactive) | 8.41 µM (inactive) | 15.8 µM (inactive) | 38.7 µM (inactive) | 48.1 µM (inactive) | 37.3 µM (inactive) | 31 µM (inactive) | 25.1 µM (inactive) | 
6 | CCOc1cc2c(cc1O)C(O)C[C@@H]1[C@@H]2CC[C@]2(C)[C@@H](O)CC[C@@H]12 (some centres undefined) | 0.299 µM (active) | 1.25 µM (inactive) | 0.61 µM (active) | 0.394 µM (active) | 0.033 µM (active) | 0.692 µM (active) | 3.44 µM (inactive) | > 100 µM (inactive) | 0.619 µM (active) | 0.129 µM (active) | 4.44 µM (inactive) | 0.231 µM (active) | 0.0459 µM (active) | 0.317 µM (active) | 0.46 µM (active) | 1.44 µM (inactive)
7 | NC(CCOCCP(=O)(O)CCC1C=CC=CC1)C(=O)O (centres undefined) | 73.5 µM (inactive) | > 100 µM (inactive) | > 100 µM (inactive) | > 100 µM (inactive) | > 100 µM (inactive) | > 100 µM (inactive) | > 100 µM (inactive) | > 100 µM (inactive) | 64 µM (inactive) | > 100 µM (inactive) | > 100 µM (inactive) | > 100 µM (inactive) | > 100 µM (inactive) | > 100 µM (inactive) | > 100 µM (inactive) | > 100 µM (inactive)
8 | c1ccc(CN2CCC3(CC2)SSC2(CCN(Cc4ccccc4)CC2)SS3)cc1 | > 100 µM (inactive) | > 100 µM (inactive) | > 100 µM (inactive) | > 100 µM (inactive) | > 100 µM (inactive) | > 100 µM (inactive) | > 100 µM (inactive) | > 100 µM (inactive) | > 100 µM (inactive) | 37 µM (inactive) | 27.2 µM (inactive) | > 100 µM (inactive) | > 100 µM (inactive) | 5.48 µM (inactive) | > 100 µM (inactive) | > 100 µM (inactive)
9 | [C-]#[N+]C(=C\c1ccc(O)cc1)/C(=C/c1ccc(O)cc1)[N+]#[C-] [XANTOCILLIN] | 1.64 µM (inactive) | 2.74 µM (inactive) | 2.06 µM (inactive) | 1.57 µM (inactive) | 1.28 µM (inactive) | 1.57 µM (inactive) | 3.65 µM (inactive) | 2.07 µM (inactive) | 1.12 µM (inactive) | 3.14 µM (inactive) | 10.9 µM (inactive) | 5.94 µM (inactive) | 1.47 µM (inactive) | 1.14 µM (inactive) | 0.718 µM (active) | 1.85 µM (inactive)
10 | NC1C2C=CC(C2)C1C(=O)O (centres undefined) | > 100 µM (inactive) | > 100 µM (inactive) | > 100 µM (inactive) | > 100 µM (inactive) | > 100 µM (inactive) | > 100 µM (inactive) | > 100 µM (inactive) | > 100 µM (inactive) | > 100 µM (inactive) | > 100 µM (inactive) | > 100 µM (inactive) | > 100 µM (inactive) | > 100 µM (inactive) | > 100 µM (inactive) | > 100 µM (inactive) | > 100 µM (inactive)
11 | CC(C)(CCCCC(C)(C)NC1=NCCO1)NC1=NCCO1 | > 10 µM (inactive) | > 10 µM (inactive) | > 10 µM (inactive) | > 10 µM (inactive) | > 10 µM (inactive) | > 10 µM (inactive) | > 10 µM (inactive) | > 10 µM (inactive) | > 10 µM (inactive) | > 10 µM (inactive) | > 10 µM (inactive) | > 10 µM (inactive) | > 10 µM (inactive) | > 10 µM (inactive) | > 10 µM (inactive) | > 10 µM (inactive)
12 | CC(=O)NC1CC(C(C)(C)NC(C)=O)CC=C1C (centres undefined) | > 100 µM (inactive) | > 100 µM (inactive) | > 100 µM (inactive) | > 100 µM (inactive) | > 100 µM (inactive) | > 100 µM (inactive) | > 100 µM (inactive) |  | > 100 µM (inactive) | > 100 µM (inactive) | > 100 µM (inactive) | > 100 µM (inactive) | > 100 µM (inactive) | > 100 µM (inactive) |  | 
13 | Nc1nc(N)c2c(CCc3ccc(C(=O)N[C@@H](CCC(=O)O)C(=O)O)cc3)ccnc2n1 | < 0.01 µM (active) | > 100 µM (inactive) | < 0.0297 µM (active) |  | < 0.01 µM (active) | < 0.05 µM (active) | 17.7 µM (inactive) | > 28.8 µM (inactive) | 0.323 µM (active) | 0.0855 µM (active) | < 0.0294 µM (active) | 0.0731 µM (active) | < 0.0129 µM (active) |  | 52 µM (inactive) | 0.0465 µM (active)
14 | O=C1N[C@@H]([C@H](CCCCCO)OC(=O)c2ccccc2)CO1 | > 100 µM (inactive) | 3.18 µM (inactive) | > 100 µM (inactive) | > 100 µM (inactive) | > 100 µM (inactive) | > 100 µM (inactive) | > 100 µM (inactive) | > 100 µM (inactive) | > 100 µM (inactive) |  | > 100 µM (inactive) | > 100 µM (inactive) | > 100 µM (inactive) | > 100 µM (inactive) | > 100 µM (inactive) | > 100 µM (inactive)
15 | CC12Nc3ccccc3N1C(=O)c1ccccc12 (centres undefined) | > 100 µM (inactive) | > 100 µM (inactive) | > 100 µM (inactive) | > 100 µM (inactive) | > 100 µM (inactive) | > 100 µM (inactive) | > 100 µM (inactive) | > 100 µM (inactive) |  | > 100 µM (inactive) | > 100 µM (inactive) | > 100 µM (inactive) | > 100 µM (inactive) | > 100 µM (inactive) | > 100 µM (inactive) | > 100 µM (inactive)
16 | O=C(Nc1ccc(F)cc1)c1cc2ccc(O)cc2o/c1=N\c1ccccc1F | 19.4 µM (inactive) |  | 51.8 µM (inactive) | 19.9 µM (inactive) | 27.9 µM (inactive) | 26.5 µM (inactive) | 32.3 µM (inactive) | 29.3 µM (inactive) |  | 12.1 µM (inactive) | > 100 µM (inactive) |  | 34.6 µM (inactive) | 34.2 µM (inactive) | 26.8 µM (inactive) | 
17 | CC(=O)O[C@H]1[C@@H](OC(C)=O)C(C)(C)/C=C/[C@H](C)C(=O)[C@@]2(OC(C)=O)C[C@@](C)(OC(C)=O)[C@H](OC(C)=O)[C@@H]2[C@H]2OC(=O)CC[C@@]2(OC(=O)c2ccccc2)[C@@H]1OCC(C)C | > 100 µM (inactive) | > 100 µM (inactive) | > 100 µM (inactive) | 80.4 µM (inactive) | 8.39 µM (inactive) | 4.76 µM (inactive) | 17.5 µM (inactive) | > 100 µM (inactive) | 17.8 µM (inactive) | 32.4 µM (inactive) | 13.5 µM (inactive) |  | 7.11 µM (inactive) | 10.7 µM (inactive) | 11.2 µM (inactive) | 46.7 µM (inactive)
18 | C=C1C(=O)OC2/C=C(\C)CC/C=C(/C)CC(OC(=O)/C(=C/CO)CO)C12 (centres undefined) | 23.4 µM (inactive) | > 10 µM (inactive) |  | 20.9 µM (inactive) | 27.8 µM (inactive) | 25.6 µM (inactive) | > 100 µM (inactive) | 25 µM (inactive) | 45.4 µM (inactive) | 17.1 µM (inactive) | 27.2 µM (inactive) | 66.2 µM (inactive) | 20.5 µM (inactive) | 21.4 µM (inactive) | 39.7 µM (inactive) | 11 µM (inactive)

— ChEMBL document CHEMBL1201862, “PubChem BioAssay data set” (2004)
